Results reported in paper PMC7721803, “Development of a penem antibiotic against Mycobacteroides abscessus” (Communications Biology, 2020).
≈ marks a conversion by molar mass, not a printed value.

What was measured:
M. abscessus = assay: MIC by broth dilution method (Middlebrook 7H9); type: cell-based, Mycobacteroides abscessus
[1] = Mouse plasma protein binding assay (rapid equilibrium dialysis); type: in vitro ADME; details: mouse plasma/serum, 4 h
Procedure: The plasma protein binding assay was performed with a Rapid Equilibrium Dialysis (RED) device (Thermo Scientific, Rockford, IL) according to the manufacturer’s directions and as previously described. […] Aliquots were taken at 30 min and 4 h, diluted with phosphate-buffered saline (PBS), and quenched in 75 µL cold acetonitrile/water (9:1) + 0.1% formic acid mixture containing 5 µM internal standard 1,8-diazabicyclo(5.4.0)undec-7-ene (DBU). The resulting mixture was incubated at −80 °C for 30 min and subjected to centrifugation at 20,000 × g for 20 min.

[2] = system: Mycobacterium tuberculosis reference strain H37Rv; assay: MIC by broth dilution method; type: cell-based; details: 336 h, 37 °C, 14 days
Procedure: MIC of each drug against M. abscessus was determined using the broth dilution method[27] in accordance with CLSI guidelines specific for this organism, except that Middlebrook 7H9 broth was used instead of cation-adjusted Mueller–Hinton broth. Powdered drug stocks were reconstituted in dimethyl sulfoxide and twofold serial dilutions were prepared in Middlebrook 7H9 broth to obtain final drug concentrations ranging from 512 to 0.5 µg/mL in 96-well plates. 10^5 colony forming units (CFU)/mL of M. abscessus from an exponentially growing culture were added to each well. M. abscessus cultured without drug and 7H9 broth alone were included in each plate as positive and negative controls, respectively. […] Growth of M. abscessus or lack thereof was assessed by visual inspection and an MIC for each drug was recorded as the lowest concentration at which M. abscessus growth was not observed. Results are reported as medians determined from three independent biological replicates. […] Middlebrook 7H9 broth was used for this assay and growth or lack thereof of M. tuberculosis was assessed after incubation at 37 °C for 14 days.

[3] = PK simulation with one-compartmental model (plasma-free drug, fT>MIC); design: species or system BALB/c mice
Procedure: All procedures involving mice were approved by the Animal Care and Use Committee of Johns Hopkins University. T405 was dissolved in PBS. […] Blood was sampled from three mice per group per time point by mandibular vein puncture or cardiac puncture at the following time points: 5, 15, 30, 60, 120, and 240 min post-dose. Plasma was separated in heparin-containing tubes and frozen. […] Concentration–time data were analyzed by standard non-compartmental and compartmental techniques using WinNonlin (version 7.0; Pharsight, Mountain View, CA). […] A plasma free drug fraction of 2% of the total drug concentration was included in the simulations.

in vivo = assay: in vivo; design: species or system BALB/c mice; details: mouse, sc
Procedure: All procedures involving mice were approved by the Animal Care and Use Committee of Johns Hopkins University. […] Blood was sampled from three mice per group per time point by mandibular vein puncture or cardiac puncture at the following time points: 5, 15, 30, 60, 120, and 240 min post-dose. Plasma was separated in heparin-containing tubes and frozen. […] Concentration–time data were analyzed by standard non-compartmental and compartmental techniques using WinNonlin (version 7.0; Pharsight, Mountain View, CA). A one-compartmental model was used to perform simulations to predict the plasma concentration–time profile after subcutaneous doses of 150, 300, and 450 mg/kg, alone and in combination with probenecid. A plasma free drug fraction of 2% of the total drug concentration was included in the simulations.

## C[C@@H](O)C1C(=O)N2C(C(=O)O)=C(SC3CN(C4=NCCS4)C3)SC12 (stereo in doubt) [T405]
M. abscessus; 20 clinical M. abscessus strains
  strains exhibiting MICs of ≤4 µg/mL: 17/20
M. abscessus; ATCC 19977, avibactam 4 µg/mL
  MIC of T405 with avibactam: 0.5 µg/mL
M. abscessus; Mycobacteroides abscessus
  MIC50: 2 µg/mL (≈ 5.16 µM)
  MIC90: 8 µg/mL (≈ 20.6 µM)
M. abscessus; Mycobacteroides abscessus, ATCC19977, reference strain ATCC 19977
  MIC: 2 µg/mL (≈ 5.16 µM)
M. abscessus; Mycobacteroides abscessus, clinical isolate 1N
  MIC: 2 µg/mL (≈ 5.16 µM)
M. abscessus; Mycobacteroides abscessus, clinical isolate 2N
  MIC: 2 µg/mL (≈ 5.16 µM)
M. abscessus; Mycobacteroides abscessus, clinical isolate 3N
  MIC: 2 µg/mL (≈ 5.16 µM)
M. abscessus; Mycobacteroides abscessus, clinical isolate 4N
  MIC: 1 µg/mL (≈ 2.58 µM)
M. abscessus; Mycobacteroides abscessus, clinical isolate 5N
  MIC: 1 µg/mL (≈ 2.58 µM)
M. abscessus; Mycobacteroides abscessus, clinical isolate 8N
  MIC: 4 µg/mL (≈ 10.3 µM)
M. abscessus; Mycobacteroides abscessus, clinical isolate 11N
  MIC: 8 µg/mL (≈ 20.6 µM)
M. abscessus; Mycobacteroides abscessus, clinical isolate 13N
  MIC: 1 µg/mL (≈ 2.58 µM)
M. abscessus; Mycobacteroides abscessus, clinical isolate 14N
  MIC: 8 µg/mL (≈ 20.6 µM)
M. abscessus; Mycobacteroides abscessus, clinical isolate 202
  MIC: 2 µg/mL (≈ 5.16 µM)
M. abscessus; Mycobacteroides abscessus, clinical isolate 203
  MIC: 2 µg/mL (≈ 5.16 µM)
M. abscessus; Mycobacteroides abscessus, clinical isolate 204
  MIC: 8 µg/mL (≈ 20.6 µM)
M. abscessus; Mycobacteroides abscessus, clinical isolate 214
  MIC: 1 µg/mL (≈ 2.58 µM)
M. abscessus; Mycobacteroides abscessus, clinical isolate 215
  MIC: 2 µg/mL (≈ 5.16 µM)
M. abscessus; Mycobacteroides abscessus, clinical isolate JH1801
  MIC: 1 µg/mL (≈ 2.58 µM)
M. abscessus; Mycobacteroides abscessus, clinical isolate JH1802
  MIC: 4 µg/mL (≈ 10.3 µM)
M. abscessus; Mycobacteroides abscessus, clinical isolate JHH2
  MIC: 4 µg/mL (≈ 10.3 µM)
M. abscessus; Mycobacteroides abscessus, clinical isolate JHH4
  MIC: 2 µg/mL (≈ 5.16 µM)
M. abscessus; Mycobacteroides abscessus, clinical isolate JHH9
  MIC: 4 µg/mL (≈ 10.3 µM)
M. abscessus; Mycobacteroides abscessus, clinical isolate JHHKB
  MIC: 2 µg/mL (≈ 5.16 µM)
M. abscessus; avibactam 4 µg/mL, ATCC 19977 and 10 clinical isolates
  Reduction of T405 MIC by addition of avibactam: two-fold (7 strains) or fourfold (2 strains)
[1]
  blood plasma binding (bound): 98%
[2]
  MIC: 0.5 to 1 µg/mL (≈ 1.29 to 2.58 µM)
[3]; 25mg/kg alone, 0.083 h
  simulated plasma-free T405 concentration: 3120 ng/mL
[3]; 25mg/kg alone, 0.25 h
  simulated plasma-free T405 concentration: 3273.33 ng/mL
[3]; 25mg/kg alone, 0.5 h
  simulated plasma-free T405 concentration: 2446 ng/mL
[3]; 25mg/kg alone, 1 h
  simulated plasma-free T405 concentration: 1212.67 ng/mL
[3]; 25mg/kg alone, 2 h
  simulated plasma-free T405 concentration: 526 ng/mL
[3]; 25mg/kg alone, 4 h
  simulated plasma-free T405 concentration: 131.67 ng/mL
[3]; 25mg/kg alone, 6 h
  simulated plasma-free T405 concentration: 29.76 ng/mL
[3]; 25mg/kg alone, 8 h
  simulated plasma-free T405 concentration: 6.87 ng/mL
[3]; 25mg/kg alone, 10 h
  simulated plasma-free T405 concentration: 1.58 ng/mL
[3]; 25mg/kg alone, 12 h
  simulated plasma-free T405 concentration: 0.37 ng/mL
[3]; 25mg/kg alone, 16 h
  simulated plasma-free T405 concentration: 0.02 ng/mL
[3]; 25mg/kg alone, 20 h
  simulated plasma-free T405 concentration: 0 ng/mL
[3]; 25mg/kg alone, 24 h
  simulated plasma-free T405 concentration: 0 ng/mL
[3]; 150mg/kg alone, 0.083 h
  simulated plasma-free T405 concentration: 18720 ng/mL
[3]; 150mg/kg alone, 0.25 h
  simulated plasma-free T405 concentration: 19640 ng/mL
[3]; 150mg/kg alone, 0.5 h
  simulated plasma-free T405 concentration: 14676 ng/mL
[3]; 150mg/kg alone, 1 h
  simulated plasma-free T405 concentration: 7276 ng/mL
[3]; 150mg/kg alone, 2 h
  simulated plasma-free T405 concentration: 3156 ng/mL
[3]; 150mg/kg alone, 4 h
  simulated plasma-free T405 concentration: 790 ng/mL
[3]; 150mg/kg alone, 6 h
  simulated plasma-free T405 concentration: 178.58 ng/mL
[3]; 150mg/kg alone, 8 h
  simulated plasma-free T405 concentration: 41.2 ng/mL
[3]; 150mg/kg alone, 10 h
  simulated plasma-free T405 concentration: 9.51 ng/mL
[3]; 150mg/kg alone, 12 h
  simulated plasma-free T405 concentration: 2.19 ng/mL
[3]; 150mg/kg alone, 16 h
  simulated plasma-free T405 concentration: 0.12 ng/mL
[3]; 150mg/kg alone, 20 h
  simulated plasma-free T405 concentration: 0.01 ng/mL
[3]; 150mg/kg alone, 24 h
  simulated plasma-free T405 concentration: 0 ng/mL
[3]; 300mg/kg alone, 0.083 h
  simulated plasma-free T405 concentration: 37440 ng/mL
[3]; 300mg/kg alone, 0.25 h
  simulated plasma-free T405 concentration: 39280 ng/mL
[3]; 300mg/kg alone, 0.5 h
  simulated plasma-free T405 concentration: 29352 ng/mL
[3]; 300mg/kg alone, 1 h
  simulated plasma-free T405 concentration: 14552 ng/mL
[3]; 300mg/kg alone, 2 h
  simulated plasma-free T405 concentration: 6312 ng/mL
[3]; 300mg/kg alone, 4 h
  simulated plasma-free T405 concentration: 1580 ng/mL
[3]; 300mg/kg alone, 6 h
  simulated plasma-free T405 concentration: 357.16 ng/mL
[3]; 300mg/kg alone, 8 h
  simulated plasma-free T405 concentration: 82.4 ng/mL
[3]; 300mg/kg alone, 10 h
  simulated plasma-free T405 concentration: 19.01 ng/mL
[3]; 300mg/kg alone, 12 h
  simulated plasma-free T405 concentration: 4.39 ng/mL
[3]; 300mg/kg alone, 16 h
  simulated plasma-free T405 concentration: 0.23 ng/mL
[3]; 300mg/kg alone, 20 h
  simulated plasma-free T405 concentration: 0.01 ng/mL
[3]; 300mg/kg alone, 24 h
  simulated plasma-free T405 concentration: 0 ng/mL
[3]; 300 mg/kg twice daily, in the presence of avibactam
  predicted free drug time above MIC (fT>MIC): above 40%
[3]; 450mg/kg alone, 0.083 h
  simulated plasma-free T405 concentration: 56160 ng/mL
[3]; 450mg/kg alone, 0.25 h
  simulated plasma-free T405 concentration: 58920 ng/mL
[3]; 450mg/kg alone, 0.5 h
  simulated plasma-free T405 concentration: 44028 ng/mL
[3]; 450mg/kg alone, 1 h
  simulated plasma-free T405 concentration: 21828 ng/mL
[3]; 450mg/kg alone, 2 h
  simulated plasma-free T405 concentration: 9468 ng/mL
[3]; 450mg/kg alone, 4 h
  simulated plasma-free T405 concentration: 2370 ng/mL
[3]; 450mg/kg alone, 6 h
  simulated plasma-free T405 concentration: 535.74 ng/mL
[3]; 450mg/kg alone, 8 h
  simulated plasma-free T405 concentration: 123.6 ng/mL
[3]; 450mg/kg alone, 10 h
  simulated plasma-free T405 concentration: 28.52 ng/mL
[3]; 450mg/kg alone, 12 h
  simulated plasma-free T405 concentration: 6.58 ng/mL
[3]; 450mg/kg alone, 16 h
  simulated plasma-free T405 concentration: 0.35 ng/mL
[3]; 450mg/kg alone, 20 h
  simulated plasma-free T405 concentration: 0.02 ng/mL
[3]; 450mg/kg alone, 24 h
  simulated plasma-free T405 concentration: 0 ng/mL
[3]; 450 mg/kg twice daily with probenecid, in absence of avibactam
  predicted free drug time above MIC (fT>MIC): 54%
[3]; 450 mg/kg twice daily with probenecid, in presence of avibactam
  predicted free drug time above MIC (fT>MIC): 72%
[3]; 450 mg/kg twice daily, free fraction 2%, MIC 0.5 µg/mL (ATCC 19977 in presence of avibactam)
  predicted free drug time above MIC (fT>MIC): 48%
[3]; 450 mg/kg twice daily, free fraction 2%, MIC 2 µg/mL (absence of avibactam)
  predicted free drug time above MIC (fT>MIC): 35%
[3]; 450mg/kg+Prob (with probenecid), 0.083 h
  simulated plasma-free T405 concentration: 48480 ng/mL
[3]; 450mg/kg+Prob (with probenecid), 0.25 h
  simulated plasma-free T405 concentration: 52560 ng/mL
[3]; 450mg/kg+Prob (with probenecid), 0.5 h
  simulated plasma-free T405 concentration: 44640 ng/mL
[3]; 450mg/kg+Prob (with probenecid), 1 h
  simulated plasma-free T405 concentration: 29664 ng/mL
[3]; 450mg/kg+Prob (with probenecid), 2 h
  simulated plasma-free T405 concentration: 16020 ng/mL
[3]; 450mg/kg+Prob (with probenecid), 4 h
  simulated plasma-free T405 concentration: 6636 ng/mL
[3]; 450mg/kg+Prob (with probenecid), 6 h
  simulated plasma-free T405 concentration: 2425.1 ng/mL
[3]; 450mg/kg+Prob (with probenecid), 8 h
  simulated plasma-free T405 concentration: 908.73 ng/mL
[3]; 450mg/kg+Prob (with probenecid), 10 h
  simulated plasma-free T405 concentration: 340.52 ng/mL
[3]; 450mg/kg+Prob (with probenecid), 12 h
  simulated plasma-free T405 concentration: 127.6 ng/mL
[3]; 450mg/kg+Prob (with probenecid), 16 h
  simulated plasma-free T405 concentration: 17.92 ng/mL
[3]; 450mg/kg+Prob (with probenecid), 20 h
  simulated plasma-free T405 concentration: 2.52 ng/mL
[3]; 450mg/kg+Prob (with probenecid), 24 h
  simulated plasma-free T405 concentration: 0.35 ng/mL
In vivo; female, BALB/c
  half-life: 1.26 h
In vivo; female, BALB/c, 25 mg/kg
  AUC(0-t): 205 µg·h/mL
  Cmax: 164 µg/mL
  half-life: 0.82 h
In vivo
  Half-life, effect of co-administration with cilastatin: not affected
